Source: the supplement of paper PMC13380429

Columns and labels:
Conditions in all cases: 72 h
Caco-2 [1] = test: cell viability relative to DMSO; higher = less toxic
Calu-3 [2] = test: as above
HepG2 [3] = test: as above
U2OS [4] = test: as above
Vero E6 [5] = test: as above
Caco-2 [6] = test: relative viability EC50 (midpoint between 100% and the lowest measured viability); higher = less toxic
Calu-3 [7] = test: as above
HepG2 [8] = test: as above
U2OS [9] = test: as above
Vero E6 [10] = test: as above
Caco-2 [11] = test: drug sensitivity score (DSS) for viability; higher = more toxic; extreme values may be limits of the assay
Calu-3 [12] = test: as above
HepG2 [13] = test: as above
U2OS [14] = test: as above
Vero E6 [15] = test: as above

Compound	cell viability (Caco-2 [1]; 1 nM) [%]	cell viability (Caco-2 [1]; 10 nM) [%]	cell viability (Caco-2 [1]; 100 nM) [%]	cell viability (Caco-2 [1]; 1000 nM) [%]	cell viability (Caco-2 [1]; 10000 nM) [%]	cell viability (Calu-3 [2]; 1 nM) [%]	cell viability (Calu-3 [2]; 10 nM) [%]	cell viability (Calu-3 [2]; 100 nM) [%]	cell viability (Calu-3 [2]; 1000 nM) [%]	cell viability (Calu-3 [2]; 10000 nM) [%]	cell viability (HepG2 [3]; 1 nM) [%]	cell viability (HepG2 [3]; 10 nM) [%]	cell viability (HepG2 [3]; 100 nM) [%]	cell viability (HepG2 [3]; 1000 nM) [%]	cell viability (HepG2 [3]; 10000 nM) [%]	cell viability (U2OS [4]; 1 nM) [%]	cell viability (U2OS [4]; 10 nM) [%]	cell viability (U2OS [4]; 100 nM) [%]	cell viability (U2OS [4]; 1000 nM) [%]	cell viability (U2OS [4]; 10000 nM) [%]	cell viability (Vero E6 [5]; 1 nM) [%]	cell viability (Vero E6 [5]; 10 nM) [%]	cell viability (Vero E6 [5]; 100 nM) [%]	cell viability (Vero E6 [5]; 1000 nM) [%]	cell viability (Vero E6 [5]; 10000 nM) [%]	relative viability EC50 (Caco-2 [6]) [µM]	relative viability EC50 (Calu-3 [7]) [µM]	relative viability EC50 (HepG2 [8]) [µM]	relative viability EC50 (U2OS [9]) [µM]	relative viability EC50 (Vero E6 [10]) [µM]	drug sensitivity score (Caco-2 [11])	drug sensitivity score (Calu-3 [12])	drug sensitivity score (HepG2 [13])	drug sensitivity score (U2OS [14])	drug sensitivity score (Vero E6 [15])
Cc1ncc(CO)c(C=O)c1O [pyridoxal]	114	104	104	112	92.1	105	91.4	99.9	99.7	118	91	81.7	102	94.1	80	98.6	95.7	103	103	99.9	102	92.6	96	94.4	102	> 10	> 10	> 10	> 10	> 10	0	0	1.3	0	0
N#CN1CCCC1 [pyrrolidine-1-carbonitrile]	103	94.7	95.4	95.9	110	97.6	104	108	107	97.9	90.6	91.1	94.4	95.2	101	90.3	98	97.9	104	107	99.6	99.2	98.2	95.3	105	> 10	> 10	> 10	> 10	> 10	0	0	0	0	0
Cc1cccc(-c2n[nH]cc2-c2ccc3ncccc3n2)n1 [repsox]	94	98.2	95	105	95	95.1	94.4	98.6	101	78.4	100	104	98.8	95.9	91	96	101	92.4	93.4	94.8	102	97.8	103	89.5	84.8	> 10	> 10	> 10	> 10	> 10	0	0.7	0	0	1
CCOC(=O)C1=CCCC[C@H]1S(=O)(=O)Nc1ccc(F)cc1Cl [resatorvid]	98.4	98.9	93.6	99	96.1	94.8	104	92.9	111	96.2	104	95.6	109	110	98.6	100	97.7	96.9	99.6	94.7	95.2	103	97.6	88.4	98.4	> 10	> 10	> 10	> 10	> 10	0	0	0	0	0
CCOCc1nc2c(N)nc3ccccc3c2n1CC(C)(C)O [resiquimod]	97.7	96.7	97.3	90.4	91.3	102	101	94.7	101	92	103	104	103	101	94.5	99.7	103	101	100	97.8	108	101	100	99.9	102	> 10	> 10	> 10	> 10	> 10	0	0	0	0	0
Cc1cc2nc3c(=O)[nH]c(=O)nc-3n(C[C@H](O)[C@H](O)[C@H](O)COP(=O)(O)O)c2cc1C [riboflavin-5-phosphate-sodium]	97.8	104	103	100	90.3	91.4	102	92.7	104	99.8	97.8	104	101	98	108	102	97.9	94.4	98.2	91.9	101	102	97.2	95.7	97.2	> 10	> 10	> 10	> 10	> 10	0	0	0	0	0
CS(=O)(=O)c1ccc(C2=C(c3ccccc3)C(=O)OC2)cc1 [rofecoxib]	96.4	93.8	100	91.1	92.7	99.1	100	98	101	102	95.7	104	95.2	103	101	101	98.9	100	98.8	99.5	93.6	105	88.4	95.3	102	> 10	> 10	> 10	> 10	> 10	0	0	0	0	0
